Measured values from PubChem BioAssay (NCI).
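GI50: concentration for 50% inhibition of growth. Definition used: TGI = concentration required for complete inhibition of growth.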

Legend:
Assay in all cases: inhibition of tumour cell growth, NCI panel, 384-well format
[1] = test system: 786-0 renal
[2] = test system: A498 renal
[3] = test system: A549 NSCLC
[4] = test system: ACHN renal
[5] = test system: BT-549 breast
[6] = test system: CAKI-1 renal
[7] = test system: COLO 205 colon
[8] = test system: DU-145 prostate
[9] = test system: EKVX NSCLC
[10] = test system: HCT-116 colon
[11] = test system: HCT-15 colon
[12] = test system: HL-60(TB) leukemia
[13] = test system: HOP-62 NSCLC
[14] = test system: HOP-92 NSCLC
[15] = test system: HS 578T breast
[16] = test system: HT29 colon
[17] = test system: IGROV1 ovarian
[18] = test system: K-562 leukemia
[19] = test system: KM12 colon
[20] = test system: M14 melanoma
[21] = test system: MALME-3M melanoma
[22] = test system: MCF7 breast
[23] = test system: MDA-MB-231 breast
[24] = test system: MDA-MB-435 melanoma
[25] = test system: MDA-MB-468 breast
[26] = test system: MOLT-4 leukemia
[27] = test system: NCI-H226 lung
[28] = test system: NCI-H23 lung
[29] = test system: NCI-H322M lung
[30] = test system: NCI-H460 NSCLC
[31] = test system: NCI-H522 lung
[32] = test system: OVCAR-3 ovarian
[33] = test system: OVCAR-4 ovarian
[34] = test system: OVCAR-5 ovarian
[35] = test system: OVCAR-8 ovarian
[36] = test system: PC-3 prostate
[37] = test system: RXF 393 renal
[38] = test system: SF-268 CNS
[39] = test system: SF-295 CNS
[40] = test system: SF-539 CNS
[41] = test system: SK-MEL-2 melanoma
[42] = test system: SK-MEL-28 melanoma
[43] = test system: SK-MEL-5 melanoma
[44] = test system: SK-OV-3 ovarian
[45] = test system: SN12C renal
[46] = test system: SNB-19 CNS
[47] = test system: SNB-75 CNS
[48] = test system: SR leukemia
[49] = test system: SW-620 colon
[50] = test system: T-47D breast
[51] = test system: TK-10 renal
[52] = test system: U251 glioblastoma
[53] = test system: UACC-257 melanoma
[54] = test system: UACC-62 melanoma
[55] = test system: UO-31 renal

Molecule `O=C(Nc1ccc2[nH]nc(-c3ccncc3)c2c1)[C@@H]1CCN(CC(=O)N2CCN(c3ccc(-c4ncccn4)cc3)CC2)C1` has a GI50 [1] of 9.92 µM, a TGI [1] of 23.6 µM and a GI50 [2] of 1.78 µM. The TGI [2] was 10 µM, the GI50 [3] was 0.628 µM and the TGI [3] was greater than 100 µM. It also gave a GI50 [4] of 8.76 µM, a TGI [4] greater than 100 µM and a GI50 [5] of 2.71 µM. The TGI [5] was 16.6 µM, the GI50 [6] was 0.507 µM and the TGI [6] was 20.6 µM. The GI50 [7] was 0.0281 µM, the TGI [7] was 0.43 µM and the GI50 [8] was 4.59 µM. It also gave a TGI [8] greater than 100 µM, a GI50 [9] of 2.28 µM and a TGI [9] of 83 µM. For the same molecule, the GI50 [10] was 0.0687 µM, the TGI [10] was 1.26 µM and the GI50 [11] was 5.45 µM. The TGI [11] was 29.1 µM, the GI50 [12] was 0.0163 µM and the TGI [12] was 1.26 µM. It also gave a GI50 [13] of 0.661 µM, a TGI [13] of 17.4 µM and a GI50 [14] of 0.417 µM. For the same molecule, the TGI [14] was 2.18 µM, the GI50 [15] was 10.8 µM and the TGI [15] was 36 µM. The GI50 [16] was 0.069 µM, the TGI [16] was 14.2 µM and the GI50 [17] was 0.438 µM. It also gave a TGI [17] of 35.7 µM, a GI50 [18] of 0.273 µM and a TGI [18] of 12.8 µM. The GI50 [19] was 5.61 µM, the TGI [19] was greater than 100 µM and the GI50 [20] was 0.0253 µM. For the same molecule, the TGI [20] was 0.198 µM, the TGI [21] was 0.0442 µM and the GI50 [22] was 11.6 µM. The TGI [22] was 26.9 µM, the GI50 [23] was 0.315 µM and the TGI [23] was 32.9 µM. The GI50 [24] was 0.0652 µM, the TGI [24] was greater than 100 µM and the GI50 [25] was 3.55 µM. For the same molecule, the TGI [25] was 33.8 µM, the GI50 [26] was 1.42 µM and the TGI [26] was 3 µM. For the same molecule, the GI50 [27] was 0.735 µM, the TGI [27] was 14.6 µM and the GI50 [28] was 0.0571 µM. It also gave a TGI [28] of 0.678 µM, a GI50 [29] of 0.623 µM and a TGI [29] of 31.6 µM. For the same molecule, the GI50 [30] was 0.379 µM, the TGI [30] was 17.6 µM and the GI50 [31] was 9.33 µM. For the same molecule, the TGI [31] was 22.1 µM, the GI50 [32] was 19.8 µM and the TGI [32] was greater than 100 µM. It also gave a GI50 [33] of 48.4 µM, a TGI [33] greater than 100 µM and a GI50 [34] of 0.16 µM. It also gave a TGI [34] greater than 100 µM, a GI50 [35] of 2.83 µM and a TGI [35] of 15 µM. It also gave a GI50 [36] of 5.37 µM, a TGI [36] of 20.5 µM and a GI50 [37] of 1.05 µM. It also gave a TGI [37] of 3.55 µM, a GI50 [38] of 17.9 µM and a TGI [38] of 73.4 µM. For the same molecule, the GI50 [39] was 13.1 µM, the TGI [39] was 37.8 µM and the GI50 [40] was 0.69 µM. For the same molecule, the TGI [40] was 9.72 µM, the GI50 [41] was 0.0375 µM and the TGI [41] was 0.192 µM. For the same molecule, the GI50 [42] was 0.0186 µM, the TGI [42] was 0.174 µM and the GI50 [43] was 0.0781 µM. The TGI [43] was 4.43 µM, the GI50 [44] was 20.3 µM and the TGI [44] was 90.7 µM. The GI50 [45] was 2.28 µM, the TGI [45] was greater than 100 µM and the GI50 [46] was greater than 100 µM. For the same molecule, the TGI [46] was greater than 100 µM, the GI50 [47] was 11.6 µM and the TGI [47] was 25.4 µM. For the same molecule, the GI50 [48] was 2.68 µM, the TGI [48] was 12 µM and the GI50 [49] was 0.0863 µM. For the same molecule, the TGI [49] was greater than 100 µM, the GI50 [50] was 2.96 µM and the TGI [50] was 9.04 µM. It also gave a GI50 [51] of 0.853 µM, a TGI [51] greater than 100 µM and a GI50 [52] of 1.79 µM. For the same molecule, the TGI [52] was 22.2 µM, the GI50 [53] was 0.0268 µM and the TGI [53] was 0.271 µM. It also gave a GI50 [54] of 0.0166 µM, a TGI [54] of 0.385 µM and a GI50 [55] of 2.28 µM. It also gave a TGI [55] of 16.1 µM.
